Experimental data published in US9399623B2, “Quinoline derivatives and their use in neurodegenerative diseases” (Merck Patent GmbH, priority 2014, dated 2016).

What was measured:
[1] = target: T1, P2X7 (Homo sapiens, UniProt Q99572); experiment: IL-1β release assay in THP-1 cells (sandwich ELISA); type: cell-based; parameters: release of mature IL-1β in the culture medium of THP-1 cells; endogenous in cells; host or cells: THP-1 cells (PMA-differentiated, LPS-primed); conditions: PMA, LPS primed, stimulated with 0.8 mM BzATP, mature IL-1β release, read-out: hTHP-1/IL-ib IC50
T1 sequence (Q99572 1-595): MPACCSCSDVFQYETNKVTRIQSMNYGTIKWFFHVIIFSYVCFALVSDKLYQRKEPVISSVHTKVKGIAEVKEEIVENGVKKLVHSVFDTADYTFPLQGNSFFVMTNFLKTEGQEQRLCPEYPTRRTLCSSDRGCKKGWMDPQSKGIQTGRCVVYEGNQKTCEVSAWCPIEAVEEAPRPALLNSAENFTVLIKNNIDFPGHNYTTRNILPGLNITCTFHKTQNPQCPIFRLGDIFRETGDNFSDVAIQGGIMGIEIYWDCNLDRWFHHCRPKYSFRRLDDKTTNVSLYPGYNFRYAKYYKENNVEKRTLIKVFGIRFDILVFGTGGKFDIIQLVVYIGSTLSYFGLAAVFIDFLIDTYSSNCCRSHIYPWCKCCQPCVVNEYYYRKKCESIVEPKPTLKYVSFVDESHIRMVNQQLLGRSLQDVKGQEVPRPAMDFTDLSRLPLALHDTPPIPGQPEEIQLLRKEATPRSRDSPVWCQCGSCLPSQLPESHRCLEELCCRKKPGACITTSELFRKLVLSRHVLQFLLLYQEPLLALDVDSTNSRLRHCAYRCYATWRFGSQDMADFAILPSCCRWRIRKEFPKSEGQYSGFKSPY
Experimental: The activation of P2X7 by ATP leads to a fast transient activation of cells resulting in influx of Ca^2+ followed by conversion of pro-IL-1β to active IL-1β. The functional activity of P2X7 compounds was measured by the release of mature IL-1β in the culture medium of THP-1 cells, detected by sandwich ELISA. Cells were maintained in complete growth medium (RPMI 1640+10% HI-FCS+2 mM L-glutamine+1×PS). […] THP-1 cells were harvested from the flask in 50 ml by centrifugation for 3 min at 100 g. The cells were resuspended to 2×10^5 cells/ml in medium supplemented with 0.5 μM PMA and incubated. The cells were washed and resuspended to 1.5×10^5 cells/ml in medium complemented with 10 ng/ml LPS, and the cells were primed for 4 h at 37° C., 5% CO2. After addition of 20 μL of prediluted test compounds, blank, standard and control reagents, cells were incubated for a further 20 min at 37° C. and stimulated with 0.8 mM BzATP for 30 minutes. The cells were centrifuged, supernatant was collected and the presence of mature IL-1β was detected using Dual human IL-1b kit following manufacturer's instruction. The tetrahydrobenzodiazepine analogs effectively modulated the activity of P2X7 in the cells as measured by the levels of pro-inflammatory cytokine IL-1β, which is released by the activation of P2X7 receptor.

[2] = target: T1, P2X7; experiment: Pore permeation assay (YO PRO dye uptake, BzATP-induced); type: cell-based; parameters: expressed in transfected cells; host or cells: HEK293; conditions: HEK293 transfected with human P2X7 receptor; YO PRO dye 1 uM, BzATP 10 uM; read-out: hP2X7 IC50
Experimental: Agonist-induced pore formation was determined by measuring cellular uptake of YO PRO fluorescence dye in HEK293 transfected with human P2X7 receptor. A HEK293 cell over expressing human P2X7 was harvested using HQTase reagent to detach the cells from T75 cm flask. The harvested cells are centrifuged @ 1200 rpm for 5 min at room temperature. The viability of cells was determined by Trypan blue dye and the cells are plated @ 10,000 cell/well in 50 ul volume in a 384 W BD Poly lysine coated plate and incubated overnight at 37 C. After overnight incubation, the culture medium was replaced with 35 ul/well assay buffer (5 mM KCl, 0.1 mM CaCl2, 5 mM Glucose, 10 mM HEPES buffer pH7.4 containing 125 mM NaCl. The serial dilution of compounds was performed using Bravo liquid handling instrument and the compounds were added using Bravo to the cell assay plate starting at 2.5 uM with three dilutions for 10 points. The positive control inhibitor compound was added to column 23. The plate was shaken slowly on a plate shaker for 10 seconds. The cells were incubated with the compound for 20 minutes at room temperature. After the incubation period, YO PRO dye (1 uM) along with BzATP (10 uM) were added to cells at 10 ul/well. The plate was centrifuged at 1000 rpm for 5 seconds and incubated at room temperature for 30 minutes. The uptake of YO PRO dye into the cells was measured using Envision Fluorescence plate reader instrument (Perkin Elmer).

Structure (SMILES) | IC50 [1] | IC50 [2]
O=C(NCC1(O)CCCC(F)(F)C1)c1c(Cl)ccc2nc(N3CC[C@H](F)C3)ccc12 (stereo partly drawn) [Compound 36, 6-Chloro-2-((S)-3-fluoropyrrolidin-1-yl)-quinoline-5-carboxylic acid (3,3-difluoro-1-hydroxycyclohexylmethyl)-amide] | 10 to 100 nM | 10 to 100 nM
O=C(NCC1(O)CCCC(F)(F)C1)c1c(Cl)ccc2nc(N3CC[C@@H](F)C3)ccc12 (stereo partly drawn) [Compound 37, 6-Chloro-2-((R)-3-fluoropyrrolidin-1-yl)-quinoline-5-carboxylic acid (3,3-difluoro-1-hydroxycyclohexylmethyl)-amide] | 10 to 100 nM | 10 to 100 nM
O=C(NCC1(O)CCCC(F)(F)C1)c1c(Cl)ccc2nc(N3CCC(F)C3)ccc12 (stereo not shown) [Compound 38, 6-Chloro-2-(3-fluoropyrrolidin-1-yl)-quinoline-5-carboxylic acid (3,3-difluoro-1-hydroxycyclohexylmethyl)-amide] | 10 to 100 nM | 10 to 100 nM
O=C(NCC1CCCC(F)(F)C1)c1c(Cl)ccc2nc(N3CCC(F)C3)ccc12 (stereo not shown) [Compound 39, 6-Chloro-2-(3-fluoropyrrolidin-1-yl)-quinoline-5-carboxylic acid (3,3-difluoro-cyclohexylmethyl)-amide] | 10 to 100 nM | 10 to 100 nM
O=C(NCC1CCC(F)(F)CC1)c1c(Cl)ccc2nc(N3CC[C@H](F)C3)ccc12 [Compound 41, 6-Chloro-2-((S)-3-fluoropyrrolidin-1-yl)-quinoline-5-carboxylic acid (4,4-difluoro-cyclohexylmethyl)-amide] | 10 to 100 nM | 10 to 100 nM
O=C(NCC1CCC(F)(F)CC1)c1c(Cl)ccc2nc(C3=CCCC3)ccc12 [Compound 42, 6-Chloro-2-cyclopent-1-enyl-quinoline-5-carboxylic acid (4,4-difluoro-cyclohexyl methyl)-amide] | 101 to 500 nM | 10 to 100 nM
CN(C)c1ccc2c(C(=O)NCC3CCC(F)(F)CC3)c(Cl)ccc2n1 [Compound 44] | 10 to 100 nM | 10 to 100 nM
O=C(NCC1CCC(F)(F)CC1)c1c(Cl)ccc2nc(N3CCC(CO)C3)ccc12 (stereo not shown) [Compound 45] | 10 to 100 nM | 10 to 100 nM
O=C(NCC1(O)CCCC(F)(F)C1)c1c(Cl)ccc2nc(N3CCC(F)(F)C3)ccc12 (stereo not shown) [Compound 46, 6-Chloro-2-(3,3-difluoropyrrolidin-1-yl)-quinoline-5-carboxylic acid (3,3-difluoro-1-hydroxycyclohexylmethyl)-amide] | 10 to 100 nM | 10 to 100 nM
O=C(NCC1CCC(F)(F)CC1)c1c(Cl)ccc2nc(C3CCOCC3)ccc12 [Compound 47, 6-Chloro-2-(tetrahydro-pyran-4-yl)-quinoline-5-carboxylic acid (4,4-difluoro-cyclohexyl methyl)-amide] | 101 to 500 nM | 10 to 100 nM
O=C(NCC1CCC(F)(F)CC1)c1c(Cl)ccc2nc(C3CCCCC3)ccc12 [Compound 48, 6-Chloro-2-cyclohexyl-quinoline-5-carboxylic acid (4,4-difluoro-cyclohexylmethyl)-amide] | 101 to 500 nM | 10 to 100 nM
O=C(NCC1CCC(F)(F)CC1)c1c(Cl)ccc2nc(N3CCC3)ccc12 [Compound 49, 2-(azetidin-1-yl)-6-Chloro-quinoline-5-carboxylic acid (4,4-difluoro-cyclohexylmethyl)-amide] | 10 to 100 nM | 10 to 100 nM
O=C(NCC1CCC(F)(F)CC1)c1c(Cl)ccc2nc(N3CCCC3)ccc12 [Compound 50] | 101 to 500 nM | 10 to 100 nM
CC(C)(C)OC(=O)N1CC=C(c2ccc3c(C(=O)NCC4CCC(F)(F)CC4)c(Cl)ccc3n2)CC1 [Compound 51, 4-{6-Chloro-5-[(4,4-difluoro-cyclohexylmethyl)-carbamoyl]-quinolin-2-yl}-3,6-dihydro-2H-pyridine-1-carboxylic acid tert-butyl ester] | 101 to 500 nM | 10 to 100 nM
CN(C)C1CCN(c2ccc3c(C(=O)NCC4CCC(F)(F)CC4)c(Cl)ccc3n2)C1 (stereo not shown) [Compound 52] | 101 to 500 nM | 10 to 100 nM
O=C(NCC1(O)CCCC(F)(F)C1)c1c(Cl)ccc2nc(N3CCC3)ccc12 (stereo not shown) [Compound 54, 2-(Azetidin-1-yl)-6-chloro-quinoline-5-carboxylic acid (3,3-difluoro-1-hydroxycyclohexylmethyl)-amide] | 101 to 500 nM | 10 to 100 nM
CCOC(=O)C1CCCN(c2ccc3c(C(=O)NCC4CCC(F)(F)CC4)c(Cl)ccc3n2)C1 (stereo not shown) [Compound 55, 1-{6-Chloro-5-[(4,4-difluoro-cyclohexylmethyl)-carbamoyl]-quinolin-2-yl}-piperidine-3-carboxylic acid ethyl ester] | > 1000 nM | 10 to 100 nM
O=C(NCC1CCC(F)(F)CC1)c1c(Cl)ccc2nc(N3CCC(CCO)C3)ccc12 (stereo not shown) [Compound 56] | 10 to 100 nM | 10 to 100 nM
O=C(NCC1CCC(F)(F)CC1)c1c(Cl)ccc2nc(N3CCC(F)(F)C3)ccc12 [Compound 58] | 101 to 500 nM | 10 to 100 nM
O=C(NCC1CCC(F)(F)CC1)c1c(Cl)ccc2nc(N3CCC(C(F)F)C3)ccc12 (stereo not shown) [Compound 59, 6-Chloro-2-(3-difluoromethyl-pyrrolidin-1-yl)-quinoline-5-carboxylic acid (4,4-difluoro-cyclohexylmethyl)-amide] | 101 to 500 nM | 10 to 100 nM
O=C(NCC1CCC(F)(F)CC1)c1c(Cl)ccc2nc(NCCCO)ccc12 [Compound 60, 6-Chloro-2-(3-hydroxy-propylamino)-quinoline-5-carboxylic acid (4,4-difluoro-cyclo hexyl methyl)-amide] | 101 to 500 nM | 10 to 100 nM
O=C(NCC1CCC(F)(F)CC1)c1c(Cl)ccc2nc(N3CC[C@@H](O)C3)ccc12 [Compound 61] | 101 to 500 nM | 10 to 100 nM
COCCCOc1ccc2c(C(=O)NCC3(O)CCC(F)(F)CC3)c(Cl)ccc2n1 [Compound 62, 6-Chloro-2-(3-methoxy-propoxy)-quinoline-5-carboxylic acid (4,4-difluoro-1-hydroxy-cyclohexyl methyl)-amide] | 101 to 500 nM | 10 to 100 nM
O=C(NCC1CCCC(F)(F)C1)c1c(Cl)ccc2nc(N3CCC(CCO)C3)ccc12 (stereo not shown) [Compound 63, 6-Chloro-2-(3-hydroxyethyl-pyrrolidin-1-yl)-quinoline-5-carboxylic acid (3,3-difluoro-cyclohexylmethyl)-amide] | 101 to 500 nM | 10 to 100 nM
O=C(NCC1CCC(F)(F)CC1)c1c(Cl)ccc2nc(CCCO)ccc12 [Compound 64, 6-Chloro-2-(3-hydroxy-propyl)-quinoline-5-carboxylic acid (4,4-Difluorocyclohexyl methyl)-amide] | 101 to 500 nM | 10 to 100 nM
O=C(NCC1(O)CCCCCC1)c1c(Cl)ccc2ncccc12 [Compound 65] | 101 to 500 nM | 10 to 100 nM
